We go through 13 molecules from patent US11739098B2 (BRISTOL-MYERS SQUIBB COMPANY, priority 2017, dated 2023).

What all share (assay type): cell-based
Test [1] deals with T1, human TLR9 (Homo sapiens, UniProt Q9NR96).
T1 construct: host or cells: HEK-Blue cells (HEK293-derived reporter line)
T1 sequence (Q9NR96 26-1032): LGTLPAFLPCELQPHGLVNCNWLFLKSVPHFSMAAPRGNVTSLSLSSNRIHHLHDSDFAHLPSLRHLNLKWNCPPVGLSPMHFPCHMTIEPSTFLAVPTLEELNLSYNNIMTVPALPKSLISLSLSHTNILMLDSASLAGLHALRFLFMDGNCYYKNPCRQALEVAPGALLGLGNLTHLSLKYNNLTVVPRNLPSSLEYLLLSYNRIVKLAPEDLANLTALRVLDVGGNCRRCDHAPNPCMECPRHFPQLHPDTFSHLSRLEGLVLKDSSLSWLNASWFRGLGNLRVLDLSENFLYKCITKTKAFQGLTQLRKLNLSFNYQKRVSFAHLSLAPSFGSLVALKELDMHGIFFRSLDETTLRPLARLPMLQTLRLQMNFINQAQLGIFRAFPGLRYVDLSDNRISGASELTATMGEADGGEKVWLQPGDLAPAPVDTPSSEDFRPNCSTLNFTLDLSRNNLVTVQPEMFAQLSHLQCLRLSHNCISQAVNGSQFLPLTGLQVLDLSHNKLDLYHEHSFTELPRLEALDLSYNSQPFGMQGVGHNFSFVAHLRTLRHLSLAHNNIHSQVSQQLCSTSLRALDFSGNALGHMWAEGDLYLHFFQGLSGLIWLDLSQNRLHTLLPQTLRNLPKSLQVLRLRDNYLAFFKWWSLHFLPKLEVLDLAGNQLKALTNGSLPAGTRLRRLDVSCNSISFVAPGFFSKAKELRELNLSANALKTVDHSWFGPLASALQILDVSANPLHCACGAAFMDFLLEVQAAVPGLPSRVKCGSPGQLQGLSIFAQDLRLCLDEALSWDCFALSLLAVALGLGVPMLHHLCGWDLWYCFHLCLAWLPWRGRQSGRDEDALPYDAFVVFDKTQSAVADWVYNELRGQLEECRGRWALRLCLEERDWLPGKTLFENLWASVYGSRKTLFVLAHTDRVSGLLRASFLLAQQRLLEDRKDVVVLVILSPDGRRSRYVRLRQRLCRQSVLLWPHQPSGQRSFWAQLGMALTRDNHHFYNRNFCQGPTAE
Briefly: TLR9 inhibition reporter assay (HEK-Blue cells, SEAP reporter, ODN2006 stimulation). To be noted: HEK-Blue cells overexpressing human TLR9, SEAP reporter, ODN2006 5 nM. The procedure, abridged:
(§1)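 Agonists (final): TLR7 gardiquimod 7.5 μM; TLR8 R848 15.9 μM; TLR9 ODN2006 5 nM. HEK-Blue reporter cells, 30 min RT compound pre-incubation, 0.05 nM–50 μM dose range, 22 h at 37 °C, colorimetric SEAP detection medium. % inhibition relative to agonist+DMSO and known-inhibitor wells.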
For orientation: Reporter assays use an easily measured gene product as a stand-in for the process of interest.

Test [2] concerns the target T2, human TLR8 (Homo sapiens, UniProt Q9NR97).
T2 construct: host or cells: HEK-Blue cells (HEK293-derived reporter line)
T2 sequence (Q9NR97 27-1041): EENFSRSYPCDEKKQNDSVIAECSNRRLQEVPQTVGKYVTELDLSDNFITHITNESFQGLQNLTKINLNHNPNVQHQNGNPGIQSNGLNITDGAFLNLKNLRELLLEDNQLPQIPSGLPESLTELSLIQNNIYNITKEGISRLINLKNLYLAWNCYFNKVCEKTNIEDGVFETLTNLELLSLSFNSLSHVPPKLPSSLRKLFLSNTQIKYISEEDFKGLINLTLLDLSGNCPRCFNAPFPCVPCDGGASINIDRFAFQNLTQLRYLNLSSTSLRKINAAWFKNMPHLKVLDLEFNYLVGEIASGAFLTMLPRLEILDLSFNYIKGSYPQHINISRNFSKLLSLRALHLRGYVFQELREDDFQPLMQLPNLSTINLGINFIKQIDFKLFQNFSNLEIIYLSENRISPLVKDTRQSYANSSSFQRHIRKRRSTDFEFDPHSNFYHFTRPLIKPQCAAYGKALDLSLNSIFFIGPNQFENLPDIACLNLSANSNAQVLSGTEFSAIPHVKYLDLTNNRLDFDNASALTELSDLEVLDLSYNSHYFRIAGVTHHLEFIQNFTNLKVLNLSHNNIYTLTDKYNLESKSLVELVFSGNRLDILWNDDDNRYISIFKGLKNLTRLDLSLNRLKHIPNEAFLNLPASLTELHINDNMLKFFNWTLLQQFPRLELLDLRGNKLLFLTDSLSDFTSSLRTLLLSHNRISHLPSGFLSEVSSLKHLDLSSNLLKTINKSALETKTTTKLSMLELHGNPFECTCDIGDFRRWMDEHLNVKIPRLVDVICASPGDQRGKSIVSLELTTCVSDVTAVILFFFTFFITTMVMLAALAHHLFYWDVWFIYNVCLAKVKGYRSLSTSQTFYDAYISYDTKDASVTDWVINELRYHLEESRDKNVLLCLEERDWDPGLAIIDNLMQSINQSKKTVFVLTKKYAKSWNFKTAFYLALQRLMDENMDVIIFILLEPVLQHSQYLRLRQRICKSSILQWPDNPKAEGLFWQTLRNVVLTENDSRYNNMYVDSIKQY
Briefly: TLR8 inhibition reporter assay (HEK-Blue cells, SEAP reporter, R848 stimulation). To be noted: HEK-Blue cells overexpressing human TLR8, SEAP reporter, R848 15.9 μM. The method in brief: as §1

Test [3] deals with T3, human TLR7 (Homo sapiens, UniProt Q9NYK1).
T3 construct: host or cells: HEK-Blue cells (HEK293-derived reporter line)
T3 sequence (Q9NYK1 27-1049): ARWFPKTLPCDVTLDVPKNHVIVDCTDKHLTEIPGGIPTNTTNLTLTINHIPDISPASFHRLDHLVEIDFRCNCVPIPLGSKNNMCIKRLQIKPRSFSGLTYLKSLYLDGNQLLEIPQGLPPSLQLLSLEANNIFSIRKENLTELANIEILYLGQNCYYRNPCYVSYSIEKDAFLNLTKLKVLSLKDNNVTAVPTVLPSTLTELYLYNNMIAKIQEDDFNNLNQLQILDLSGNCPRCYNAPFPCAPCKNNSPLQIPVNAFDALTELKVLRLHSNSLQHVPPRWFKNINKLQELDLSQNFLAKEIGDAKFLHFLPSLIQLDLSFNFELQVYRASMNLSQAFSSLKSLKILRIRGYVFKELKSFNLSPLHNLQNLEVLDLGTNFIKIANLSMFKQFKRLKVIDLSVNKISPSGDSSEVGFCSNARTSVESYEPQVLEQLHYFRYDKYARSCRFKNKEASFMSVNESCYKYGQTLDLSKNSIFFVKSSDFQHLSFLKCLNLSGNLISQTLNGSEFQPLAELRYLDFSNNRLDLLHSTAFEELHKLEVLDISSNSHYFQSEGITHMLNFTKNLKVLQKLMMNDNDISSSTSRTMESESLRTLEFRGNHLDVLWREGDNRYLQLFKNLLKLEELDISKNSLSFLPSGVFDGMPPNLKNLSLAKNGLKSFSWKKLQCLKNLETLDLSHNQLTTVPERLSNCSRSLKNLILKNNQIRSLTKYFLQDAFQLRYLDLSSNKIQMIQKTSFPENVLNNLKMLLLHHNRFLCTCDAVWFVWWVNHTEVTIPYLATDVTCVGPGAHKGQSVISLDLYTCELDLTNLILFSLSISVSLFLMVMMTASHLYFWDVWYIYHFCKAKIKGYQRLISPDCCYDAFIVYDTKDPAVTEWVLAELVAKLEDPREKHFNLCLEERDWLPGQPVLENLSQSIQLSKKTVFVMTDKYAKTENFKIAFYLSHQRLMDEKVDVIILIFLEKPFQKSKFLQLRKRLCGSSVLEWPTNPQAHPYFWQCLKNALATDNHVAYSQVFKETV
Briefly: TLR7 inhibition reporter assay (HEK-Blue cells, SEAP reporter, gardiquimod stimulation). The conditions noted are these: HEK-Blue cells overexpressing human TLR7, SEAP reporter, gardiquimod 7.5 μM. The procedure, abridged: as §1

By IC50 is commonly meant the point on the concentration scale where inhibition reaches its midpoint. A higher IC50 goes with weaker potency.

For the molecule `Cc1cn2cc(-c3[nH]c4ccc(C5CCN(Cc6c[nH]cn6)CC5)cc4c3C(C)C)ccc2n1` [Example 936, 6-(5-(1-((1H-imidazol-4-yl)methyl)piperidin-4-yl)-3-isopropyl-1H-indol-2-yl)-2-methylimidazo[1,2-a]pyridine], the IC50 in test [1] was less than 0.1 µM; in test [2] it was 0.1 to 1 µM; in test [3] it was less than 0.1 µM.

On to `Cc1cc(-c2[nH]c3ccc(C4CCNCC4)cc3c2C(C)C)cn2cc(C(=O)N(C)C)nc12` [Example 265, 6-(3-isopropyl-5-(piperidin-4-yl)-1H-indol-2-yl)-N,N,8-trimethylimidazo[1,2-a]pyridine-2-carboxamide], for which the IC50 in test [1] was 1 to 50 µM; in test [2] it was less than 0.1 µM; in test [3], less than 0.1 µM.

As for `CC(C)c1c(-c2cn3cnnc3c(O)n2)[nH]c2ccc(C3CCNCC3)cc12` [Example 34, 6-(3-isopropyl-5-(piperidin-4-yl)-1H-indol-2-yl)-[1,2,4]triazolo[4,3-a]pyrazin-8-ol], the 50% inhibitory concentration (IC50) in test [1] was 1 to 50 µM; in test [2], more than 3.13 µM; in test [3], 1 to 50 µM.

With `CNCC(=O)N1CCC(c2ccc3[nH]c(-c4cc(OC)n5ncnc5c4)c(C(C)C)c3c2)CC1` [Example 553, 1-(4-(3-isopropyl-2-(5-methoxy-[1,2,4]triazolo[1,5-a]pyridin-7-yl)-1H-indol-5-yl)piperidin-1-yl)-2-(methylamino)ethan-1-one], the half-maximal inhibitory concentration (IC50) was 0.1 to 1 µM in test [1], less than 0.1 µM in test [2] and less than 0.1 µM in test [3].

Take `Cc1cc(-c2[nH]c3ccc(C4CCN(C(CO)CO)CC4)cc3c2C(C)C)cc2nccn12` [Example 755, 2-(4-(3-isopropyl-2-(5-methylimidazo[1,2-a]pyridin-7-yl)-1H-indol-5-yl)piperidin-1-yl)propane-1,3-diol]: the figures for the IC50 in test [1], in test [2] and in test [3] were less than 0.1 µM, 0.1 to 1 µM and 0.1 to 1 µM, respectively.

For the molecule `CCc1c(-c2cnc3[nH]ncc3c2)[nH]c2ccc(C3CCN(C4CCN(C(C)C)CC4)CC3)cc12` [Example 819, 5-(3-ethyl-5-(1′-isopropyl-[1,4′-bipiperidin]-4-yl)-1H-indol-2-yl)-1H-pyrazolo[3,4-b]pyridine], the values for the half-maximal inhibitory concentration (IC50) in test [1], in test [2] and in test [3] were 0.1 to 1 µM, less than 0.1 µM and 0.1 to 1 µM, respectively.

In the case of `CCc1c(-c2cc3cn(C)nc3cn2)[nH]c2ccc(C3CCNCC3)cc12` [Example 98, 5-(3-ethyl-5-(piperidin-4-yl)-1H-indol-2-yl)-2-methyl-2H-pyrazolo[3,4-c]pyridine], the IC50 in test [1] lay in the range of 1 to 50 µM; in test [2], 0.1 to 1 µM; in test [3], 1 to 50 µM.

Take `Cc1cc(-c2[nH]c3ccc(C4CCN(C5CCOCC5)CC4)cc3c2C(C)C)cn2nnnc12` [Example 698, 6-(3-isopropyl-5-(1-(tetrahydro-2H-pyran-4-yl)piperidin-4-yl)-1H-indol-2-yl)-8-methyltetrazolo[1,5-a]pyridine]: the IC50 is 1 to 50 µM in test [1], less than 0.1 µM in test [2] and less than 0.1 µM in test [3].

Take `Cc1ccc(-c2[nH]c3ccc(C4CCNCC4)cc3c2C(C)C)c2ncnn12` [Example 152, 8-(3-isopropyl-5-(piperidin-4-yl)-1H-indol-2-yl)-5-methyl-[1,2,4]triazolo[1,5-a]pyridine]: the IC50 in test [1] is 1 to 50 µM; in test [2] it was less than 0.1 µM; in test [3] it was less than 0.1 µM.

On to `CC(C)c1c(-c2ccc3ncsc3c2)[nH]c2ccc(C3CCN(CC(=O)N(C)C)CC3)cc12` [Example 298, 2-(4-(2-(benzo[d]thiazol-6-yl)-3-isopropyl-1H-indol-5-yl)piperidin-1-yl)-N,N-dimethylacetamide], for which the IC50 in test [1] is 1 to 50 µM; in test [2], less than 0.1 µM; in test [3] it was less than 0.1 µM.

For `CC(C)c1c(-c2ccn3nccc3n2)[nH]c2ccc(C3CCN(CC(=O)N(C)C)CC3)cc12` [Example 425, 2-(4-(3-isopropyl-2-(pyrazolo[1,5-a]pyrimidin-5-yl)-1H-indol-5-yl)piperidin-1-yl)-N,N-dimethylacetamide], the IC50 in test [1] was in the range of 1 to 50 µM; in test [2], 0.1 to 1 µM; in test [3] it was 0.1 to 1 µM.

As to `CCc1c(-c2cnc3cccnn23)[nH]c2ccc(C3CCNCC3)cc12` [Example 187, 3-(3-ethyl-5-(piperidin-4-yl)-1H-indol-2-yl)imidazo[1,2-b]pyridazine], the IC50 in test [1], in test [2] and in test [3] was 1 to 50 µM each time.

`COc1cc(-c2[nH]c3ccc(C4CCN(C(=O)CN(C)C)CC4)cc3c2C(C)C)cn2ccnc12` [Example 558, 2-(dimethylamino)-1-(4-(3-isopropyl-2-(8-methoxyimidazo[1,2-a]pyridin-6-yl)-1H-indol-5-yl)piperidin-1-yl) ethan-1-one]: the IC50 in test [1] is 0.1 to 1 µM; in test [2], less than 0.1 µM; in test [3] it was less than 0.1 µM.
